Measured values published in patent publication US20240309117A1, “APTAMER-PEPTIDE CONJUGATES” (CITY UNIVERSITY OF HONG KONG, priority 2023, published 2024).
[L-RNA-N] = L-ribonucleotide (mirror-image RNA) unit (N: the base)

Columns and labels:
hTERC rG4 WT [1] = assay: Dual-luciferase reporter gene assay, hTERC rG4 WT, HeLa cells; assay type: cell-based, human; settings: 200 nM, 48 hours
Procedure: (§1) The DNA sequences encoding hTERC rG4 WT, hTERC rG4 Mut, NRAS rG4 WT, NRAS rG4 Mut, APP rG4 WT, and APP rG4 Mut (Table 1) were respectively introduced into the 5′UTR of the renilla luciferase gene in the psiCHECK-2 vector. 2×10^4 HeLa cells were seeded on 96-well black-wall plates. In sequential addition assay, 10 ng WT and Mut plasmids were transfected to cells by LIPOFECTAMINE® 2000 separately. Subsequently, Tamra_Ahx_R8, Tamra_Ahx_R8_L-Apt.4-1c, and L-Apt.4-1c (0, 100 nM, 200 nM) were separately added to cells after being washed with phosphate buffered saline (PBS) at 4 hours post-transfection and incubated for 48 hours. In co-transfection assay, 10 ng WT or Mut plasmid was co-transfected with Tamra_Ahx_R8, Tamra_Ahx_R8_L-Apt.4-1c, and L-Apt.4-1c (0, 100 nM, 200 nM) separately to cells by LIPOFECTAMINE® 2000 and incubated for 48 hours. Luciferase activity was determined by microplate reader. The renilla activity was normalized to firefly activity for data analysis.

hTERC rG4 WT [2] = assay: Dual-luciferase reporter assay, hTERC rG4 WT, HEK 293T cells; assay type: cell-based, human
Procedure: as §1

## L-Apt.4-1c: the L-RNA aptamer of SEQ ID NO: 1 (GCCCUAAAGGUGGUGGUGGGAGGGC), non-conjugated control (all [L-RNA-N], backbone not given here)
hTERC rG4 WT [1]; co-transfection with plasmid by LIPOFECTAMINE 2000, 0, 100 nM
  Effect on normalized luciferase activity, hTERC rG4 WT construct: only functioned well in co-transfection method
hTERC rG4 WT [1]; sequential addition, absence of transfection reagent, 0, 100 nM
  Effect on normalized luciferase activity, hTERC rG4 WT construct: neither Tamra_Ahx_R8 peptide nor L-Apt.4-1c modulated luciferase activity
hTERC rG4 WT [2]
  Effect on normalized luciferase activity, hTERC rG4 WT construct: cannot regulate luciferase activity
